The target in this experiment is Rv2887 (Mycobacterium tuberculosis, UniProt P9WME9). The experiment is described as follows: biochemical.

As usually defined, the Kd is the constant that tells how readily two partners part at equilibrium. Read a high Kd as weaker binding.

Chain of Rv2887 (P9WME9 whole entry): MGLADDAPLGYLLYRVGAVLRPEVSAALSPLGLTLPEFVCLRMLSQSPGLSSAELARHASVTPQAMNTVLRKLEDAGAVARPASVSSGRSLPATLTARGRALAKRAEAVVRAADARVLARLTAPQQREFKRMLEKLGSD

With `COC(=O)[C@@H]1CCC(=O)N1Cc1cc2ccc(OC)cc2c2cc(OC)c(OC)cc12` [PP1S], the Kd came out at 274 µM. For `CCCCOc1ccc2cc(CN3C(=O)CC[C@H]3C(=O)OC)c3cc(OC)c(OC)cc3c2c1` [PP2S] the value was 250 µM.

The values are drawn from publication PMC9598822, “Increased Susceptibility of Mycobacterium tuberculosis to Ethionamide by Expressing PPs-Induced Rv0560c” (Antibiotics, 2022).
